Measured values reported in ChEMBL document CHEMBL1641455, “Discovery of novel ureas and thioureas of 3-decladinosyl-3-hydroxy 15-membered azalides active against efflux-mediated resistant Streptococcus pneumoniae” (2011).
In brackets after ≈: the same amount, converted by molar mass.

Key:
Assay type in all cases: functional
Escherichia coli = test: Antimicrobial activity against Escherichia coli ATCC 25922 after 16 to 22 hrs by broth microdilution method
Enterococcus faecalis = test: Antimicrobial activity against Enterococcus faecalis ATCC 29212 after 16 to 22 hrs by broth microdilution method
Streptococcus pyogenes [1] = test: Antimicrobial activity against erythromycin-susceptible Streptococcus pyogenes after 16 to 22 hrs by broth microdilution method
Haemophilus influenzae = test: Antimicrobial activity against Haemophilus influenzae ATCC 49247 after 16 to 22 hrs by broth microdilution method
Streptococcus pneumoniae [2] = test: Antimicrobial activity against erythromycin-susceptible Streptococcus pneumoniae after 16 to 22 hrs by broth microdilution method
Streptococcus pneumoniae [3] = test: Antimicrobial activity against macrolide-resistant erythromycin-Streptococcus pneumoniae after 16 to 22 hrs by broth microdilution method
Staphylococcus aureus = test: Antimicrobial activity against Staphylococcus aureus ATCC 29213 after 16 to 22 hrs by broth microdilution method
Moraxella catarrhalis = test: Antimicrobial activity against Moraxella catarrhalis ATCC 23246 after 16 to 22 hrs by broth microdilution method
Streptococcus pyogenes [4] = test: Antimicrobial activity against macrolide-resistant erythromycin-Streptococcus pyogenes after 16 to 22 hrs by broth microdilution method
[5] = Escherichia coli, ATCC 25922, read-out: MIC
[6] = Streptococcus pyogenes, read-out: MIC
[7] = Haemophilus influenzae, ATCC 49247, read-out: MIC
[8] = Streptococcus pneumoniae, read-out: MIC
[9] = Staphylococcus aureus, ATCC 29213, read-out: MIC

| Compound | MIC (Escherichia coli; [5]) | MIC (Enterococcus faecalis) | MIC (Streptococcus pyogenes [1]; [6]) | MIC (Haemophilus influenzae; [7]) | MIC (Streptococcus pneumoniae [2]; [8]) | MIC (Streptococcus pneumoniae [3]; [8]) | MIC (Staphylococcus aureus; [9]) | MIC (Moraxella catarrhalis) | MIC (Streptococcus pyogenes [4]; [6]) | MIC (Escherichia coli) | MIC (Streptococcus pyogenes [1]) | MIC (Haemophilus influenzae) | MIC (Streptococcus pneumoniae [2]) | MIC (Streptococcus pneumoniae [3]) | MIC (Staphylococcus aureus) | MIC (Streptococcus pyogenes [4]) |
| --- | --- | --- | --- | --- | --- | --- | --- | --- | --- | --- | --- | --- | --- | --- | --- | --- |
| CC[C@H]1OC(=O)[C@H](C)[C@@H](O)[C@H](C)[C@@H](O[C@@H]2O[C@H](C)C[C@H](N(C)C)[C@H]2O)[C@](C)(O)C[C@@H](C)CN(CCCNC(=S)Nc2cccc3ccccc23)[C@H](C)[C@@H](O)[C@]1(C)O | 16 µg/mL (≈ 19.5 µM) | 32 µg/mL (≈ 39.1 µM) | 8 µg/mL (≈ 9.77 µM) | 4 µg/mL (≈ 4.88 µM) | 1 µg/mL (≈ 1.22 µM) | 2 µg/mL (≈ 2.44 µM) | > 64 µg/mL | 0.5 µg/mL (≈ 0.61 µM) | 64 µg/mL (≈ 78.1 µM) |  |  |  |  |  |  |  |
| CC[C@H]1OC(=O)[C@H](C)[C@@H](O)[C@H](C)[C@@H](O[C@@H]2O[C@H](C)C[C@H](N(C)C)[C@H]2O)[C@](C)(O)C[C@@H](C)CN(CCCNC(=O)Nc2cccc3ccccc23)[C@H](C)[C@@H](O)[C@]1(C)O | 8 µg/mL (≈ 9.96 µM) | 32 µg/mL (≈ 39.8 µM) | 2 µg/mL (≈ 2.49 µM) | 2 µg/mL (≈ 2.49 µM) | 1 µg/mL (≈ 1.25 µM) | 8 µg/mL (≈ 9.96 µM) | > 64 µg/mL | 2 µg/mL (≈ 2.49 µM) | 16 µg/mL (≈ 19.9 µM) |  |  |  |  |  |  |  |
| CC[C@H]1OC(=O)[C@H](C)[C@@H](O)[C@H](C)[C@@H](O[C@@H]2O[C@H](C)C[C@H](N(C)C)[C@H]2O)[C@](C)(O)C[C@@H](C)CN(CCCN(CCC#N)C(=S)NCCc2ccccc2)[C@H](C)[C@@H](O)[C@]1(C)O | > 64 µg/mL | > 64 µg/mL | > 64 µg/mL | 32 µg/mL (≈ 37.6 µM) |  | 16 µg/mL (≈ 18.8 µM) | > 64 µg/mL | 8 µg/mL (≈ 9.41 µM) |  |  |  |  |  |  |  |  |
| CC[C@H]1OC(=O)[C@H](C)[C@@H](O[C@H]2C[C@@](C)(OC)[C@@H](O)[C@H](C)O2)[C@H](C)[C@@H](O[C@@H]2O[C@H](C)C[C@H](N(C)C)[C@H]2O)[C@](C)(O)C[C@@H](C)CN(C)[C@H](C)[C@@H](O)[C@]1(C)O (stereo in doubt; 2) [AZITHROMYCIN] |  |  |  |  |  |  |  |  |  | 16 µg/mL (≈ 21.4 µM) | >64 µg/mL | 16 µg/mL (≈ 21.4 µM) | >64 µg/mL | >64 µg/mL | >64 µg/mL | >64 µg/mL |
| CC[C@H]1OC(=O)[C@H](C)[C@@H](O)[C@H](C)[C@@H](O[C@@H]2O[C@H](C)C[C@H](N(C)C)[C@H]2O)[C@](C)(O)C[C@@H](C)CN(CCCN(CCC#N)C(=O)Nc2ccc(Cl)cc2Cl)[C@H](C)[C@@H](O)[C@]1(C)O | > 64 µg/mL | > 64 µg/mL | > 64 µg/mL | 16 µg/mL (≈ 18.3 µM) |  | 8 µg/mL (≈ 9.14 µM) | > 64 µg/mL | 8 µg/mL (≈ 9.14 µM) |  |  |  |  |  |  |  |  |
| CC[C@H]1OC(=O)[C@H](C)[C@@H](O)[C@H](C)[C@@H](O[C@@H]2O[C@H](C)C[C@H](N(C)C)[C@H]2O)[C@](C)(O)C[C@@H](C)CN(CCCNC(=O)NC(C)c2cccc3ccccc23)[C@H](C)[C@@H](O)[C@]1(C)O (mixture of isomers) | 16 µg/mL | 8 µg/mL | < 0.125 µg/mL | 4 µg/mL | < 0.125 µg/mL | 16 µg/mL | 16 µg/mL | 4 µg/mL | 16 µg/mL |  |  |  |  |  |  |  |
| CC[C@H]1OC(=O)[C@H](C)[C@@H](O)[C@H](C)[C@@H](O[C@@H]2O[C@H](C)C[C@H](N(C)C)[C@H]2O)[C@](C)(O)C[C@@H](C)CN(CCCN(CCC#N)C(=O)NC(C)c2cccc3ccccc23)[C@H](C)[C@@H](O)[C@]1(C)O (mixture of isomers) | > 64 µg/mL | 64 µg/mL | 4 µg/mL | 16 µg/mL | 4 µg/mL | 8 µg/mL | > 64 µg/mL | 4 µg/mL | > 64 µg/mL |  |  |  |  |  |  |  |
| CC[C@H]1OC(=O)[C@H](C)[C@@H](O[C@H]2C[C@@](C)(OC)[C@@H](O)[C@H](C)O2)[C@H](C)[C@@H](O[C@@H]2O[C@H](C)C[C@H](N(C)C)[C@H]2O)[C@](C)(O)C[C@@H](C)CN(C)[C@H](C)[C@@H](O)[C@]1(C)O (stereo in doubt; 1) [AZITHROMYCIN] |  | 8 µg/mL (≈ 10.7 µM) |  |  |  |  |  | < 0.125 µg/mL |  | 2 µg/mL (≈ 2.67 µM) |  | 1 µg/mL (≈ 1.34 µM) |  | 8 µg/mL (≈ 10.7 µM) | 0.5 µg/mL (≈ 0.668 µM) | 4 µg/mL (≈ 5.34 µM) |
| CC[C@H]1OC(=O)[C@H](C)[C@@H](O)[C@H](C)[C@@H](O[C@@H]2O[C@H](C)C[C@H](N(C)C)[C@H]2O)[C@](C)(O)C[C@@H](C)CN(CCCN(CCC#N)C(=S)NCCCc2ccccc2)[C@H](C)[C@@H](O)[C@]1(C)O | > 64 µg/mL | > 64 µg/mL | 32 µg/mL (≈ 37 µM) | 8 µg/mL (≈ 9.26 µM) |  | 16 µg/mL (≈ 18.5 µM) | > 64 µg/mL | 8 µg/mL (≈ 9.26 µM) | 64 µg/mL (≈ 74.1 µM) |  |  |  |  |  |  |  |
| CC[C@H]1OC(=O)[C@H](C)[C@@H](O)[C@H](C)[C@@H](O[C@@H]2O[C@H](C)C[C@H](N(C)C)[C@H]2O)[C@](C)(O)C[C@@H](C)CN(CCCN(CCC#N)C(=S)NCc2ccccc2)[C@H](C)[C@@H](O)[C@]1(C)O | > 64 µg/mL | > 64 µg/mL | > 64 µg/mL | 8 µg/mL (≈ 9.57 µM) |  | 16 µg/mL (≈ 19.1 µM) | > 64 µg/mL | 2 µg/mL (≈ 2.39 µM) |  |  |  |  |  |  |  |  |
| CC[C@H]1OC(=O)[C@H](C)[C@@H](O)[C@H](C)[C@@H](O[C@@H]2O[C@H](C)C[C@H](N(C)C)[C@H]2O)[C@](C)(O)C[C@@H](C)CN(CCCN(CCC#N)C(=O)Nc2cccc3ccccc23)[C@H](C)[C@@H](O)[C@]1(C)O | 64 µg/mL (≈ 74.8 µM) | > 64 µg/mL | 16 µg/mL (≈ 18.7 µM) | 32 µg/mL (≈ 37.4 µM) | 16 µg/mL (≈ 18.7 µM) | 64 µg/mL (≈ 74.8 µM) | > 64 µg/mL | 8 µg/mL (≈ 9.34 µM) | 64 µg/mL (≈ 74.8 µM) |  |  |  |  |  |  |  |
| CC[C@H]1OC(=O)[C@H](C)[C@@H](O)[C@H](C)[C@@H](O[C@@H]2O[C@H](C)C[C@H](N(C)C)[C@H]2O)[C@](C)(O)C[C@@H](C)CN(CCCNC(=S)NCCc2ccccc2)[C@H](C)[C@@H](O)[C@]1(C)O | 64 µg/mL (≈ 80.3 µM) | 64 µg/mL (≈ 80.3 µM) | 32 µg/mL (≈ 40.1 µM) | 16 µg/mL (≈ 20.1 µM) | 4 µg/mL (≈ 5.02 µM) | 16 µg/mL (≈ 20.1 µM) | > 64 µg/mL | 4 µg/mL (≈ 5.02 µM) | 64 µg/mL (≈ 80.3 µM) |  |  |  |  |  |  |  |
| CC[C@H]1OC(=O)[C@H](C)[C@@H](O)[C@H](C)[C@@H](O[C@@H]2O[C@H](C)C[C@H](N(C)C)[C@H]2O)[C@](C)(O)C[C@@H](C)CN(CCCN(CCC#N)C(=O)Nc2ccc3ccccc3c2)[C@H](C)[C@@H](O)[C@]1(C)O | 16 µg/mL (≈ 18.7 µM) | 32 µg/mL (≈ 37.4 µM) | 8 µg/mL (≈ 9.34 µM) | 2 µg/mL (≈ 2.34 µM) |  | 4 µg/mL (≈ 4.67 µM) | > 64 µg/mL | 2 µg/mL (≈ 2.34 µM) | 16 µg/mL (≈ 18.7 µM) |  |  |  |  |  |  |  |
